Square brackets hold non-standard residues; d marks the D form. Ends that are not written are not given here. Peptide text beside a SMILES is read from it.
System: DLBCL cell lines known to be biologically dependent on BCL6 (ly1, Ly7 and Ly10)
Assay: DLBCL cell growth inhibition, BCL6-dependent cell lines
Format: cell-based, human
Details: for anti-lymphoma activity: BCL6 dependent DLBCL cells, 48 h; for GI50: Ly1, Ly7, Ly10, 48 hr total amount, dose frequency as in Table 1
Method: DLBCL cell lines were grown at its respective concentration that were sufficient to keep the untreated cells in exponential growth over the 48 h peptide exposure time. Cell viability was determined by using a fluorometric resazurin reduction method (CellTiter-Blue, Promega) following the manufacturer instructions. The fluorescence (560Ex/590Em) was determined using the Polarstar Optima microplate reader (BMG Labtechnologies). The number of viable cells in each treated well was calculated by using the linear least-squares regression of the standard curve. Optical density was determined for 6 replicates per treatment condition or standard. Cell viability in peptide-treated cells was normalized to their respective controls. Cell viability was verified by the Sulforhodamine B assay (Sigma, Milwaukee, Wis.) following manufacturer's instructions with minor modifications for suspended cells. Experiments were carried out in triplicates and data are represented as percentage of growth inhibition to respective control with 95% confidence interval.
DLBCL cell growth inhibition was chosen as the most relevant screening assay to compare and contrast the biological activity of BPI and its derivatives. […] Growth inhibition was measured by a metabolic viability assay and verified by trypan blue exclusion and were performed in biological quintuplicates. […]

Molecule | anti-lymphoma activity | GI50 | also measured
YGRKKRRQRRRGGLVATVKEAGRSIHEIPREEL [S1] | not active | – | –
CC[C@@H](C)[C@@H](NC(=O)CNC(=O)[C@@H](CCCNC(=N)N)NC(=O)CNC(=O)CNC(=O)[C@@H](CCCNC(=N)N)NC(=O)[C@@H](CCCCN)NC(=O)[C@@H](CCCCN)NC(=O)[C@@H](CCCNC(=N)N)NC(=O)[C@@H](CCCNC(=N)N)NC(=O)[C@@H](CCC(N)=O)NC(=O)[C@@H](CCCNC(=N)N)NC(=O)[C@@H](CCCNC(=N)N)NC(=O)[C@@H](CCCNC(=N)N)NC(=O)CN)C(=O)N[C@H](CCC(=O)O)C(=O)N[C@H](Cc1c[nH]cn1)C(=O)N[C@@H](C(=O)N[C@H](CO)C(=O)N[C@H](CCCNC(=N)N)C(=O)NCC(=O)O)[C@H](C)CC [S7] (H-G[dR][dR][dR][dQ][dR][dR][dK][dK][dR]GG[dR]G[dI][dE][dH][dI][dS][dR]G-OH; N-terminus and C-terminus assumed) | significantly weaker | – | –
NH2-GLFGAIAGFIENGWEGMIDG-OH (H-GLFGAIAGFIENGWEGMIDG-OH) [Fu, reference compound] | – | – | effect on DLBCL viability (FIG. 8) (Ly1, Ly7 and Ly10, peptides administered every 4 h during a 48 h interval): little or no effect
G[dD][dI][dM]G[dE][dW]G[dN][dE][dI][dF]G[dA][dI][dA]G[dF][dL]GG[dR][dR][dR][dQ][dR][dR][dK][dK][dR]GGRSIHEIPRG [S4] | – | 14.4 µM | –
YGRKKRRQRRRGGRSIHEIPRG [S2] | – | 21.7 µM | –

Source: US8791075B2, “Methods and compositions for inhibition of BCL6 repression” (Albert Einstein College of Medicine of Yeshiva University, priority 2008, dated 2014)
